Assay results: patent US20230203482A1, “Methods of Rescuing Stop Codons via Genetic Reassignment with ACE-tRNA” (THE WISTAR INSTITUTE OF ANATOMY AND BIOLOGY, priority 2017, published 2023)

Tested on: NLuc-UGA PTC
Experiment: NanoLuc nonsense reporter screen (all-in-one HTC plasmid), TGA/UGA PTC, HEK293 cells
Type: cell-based, human
Details: for stop codon selectivity (NanoLuc TGA, TAA or TAG reporter): transiently transfected HEK293 cells
Text: Several different nonsense mutations cause CF, thus underlying roughly 10% of all CF disease. FIG. 7. These cases are concentrated into […] specific genetic lesions: E60X, R75X, G542X, R553X, Q890X, Y1092X, R1158X, R1162X and W1282X. A screen was developed to screen existing human tRNA sequences for modification and tolerance to anti-codon editing. To this end, roughly 144 ACE-tRNAs were candidates to test for those that could be used to promote the repair of the disease causative nonsense codon and the expression of the full-length protein. Specifically, using the scheme described in FIG. 11, tRNA libraries were generated to identify novel tRNA sequences that encode for ACE tRNA with the ability to repair the top CF causative nonsense mutations. Specifically, 10 ng of annealed oligos encoding the ACE-tRNAs were combined with 50 ng of NanoLuc reporter plasmid, 1 μl 10×CutSmart Buffer (NEB), 1 μl T4 ligase (NEB), 10 mM ATP and 1 μl BbsI (NEB) and cycled in a thermocycler as described in FIG. 11. 1 μl of the reaction was transformed into competent E. coli and the transformants were plated on ampicillin agar plates. One transformant was picked per plate was picked, grown in 1 ml of LB under ampicillin selection, miniprepped and sequence verified.
Screening studies were first performed to identify the best ACE-tRNA Candidates from tryptophan and glycine. 125 ng of sequence verified miniprep cDNA of NanoLuc reporter plasmid with ACE-tRNA was transfected into HEK cells using calcium phosphate. HEK cells were plated in 96 well plates at 4×10^4 the day prior. 24 hours after transfection the media was replaced with 20 μl of PBS and 15 μl of NanoGlo reagent (Promega) was added. Plates were read on a SpectraMax i3 (Molecular Devices). Data are of replicates of 3 or greater. FIG. 8.
FIG. 10. An additional modification of the tRNA was made to further enable their function for the purpose of suppression of nonsense codons and the promotion of protein expression. […] To this end, single and double mutations were directly engineered into the t-stem loop of tRNA Trpchr17.trna39—an ACE-tRNA identified with activity for the rescue of tryptophan TGA nonsense codons. Thirty-eight tRNA t-stem variants were thus generated and screened in HEK cells transiently transfected with the nonsense rescue reporter construct shown in FIG. 4. […] This is a generalizable modification, that is, new tRNA sequences identified, by example 1 and 2, can be made better (for their ability to rescue nonsense codons) through further rationale modifications. Such approaches aid in the therapeutic utility of ACE-tRNA directed to tissue types with low abundance target RNA or where tRNA delivery may be limiting.
In order to enable the identification of the nucleotide composition and functional ability to suppress nonsense codons by new types of tRNA, an All-In-One Plasmid With A One Pot Cloning Reaction was invented for High Throughput Cloning FIG. 11. This approach enables the facile investigation of ACE-tRNA activity via luciferase activity in a standard 96 well format. Briefly, synthetic nucleotide sequences encoding for tRNA are ligated into the NanoLuc Reporter plasmid, with an example of the TGA nonsense reporter plasmid variant shown in FIG. 11. […] and TAG (amber) stop codon rescue vectors have been successfully designed and implemented in FIGS. 16-19. The benefits are the approach is that DNA oligos encoding for tRNA libraries can be ligated in the NanoLuc reporter plasmid with the presence of the restriction enzyme and ligase with the reaction pushed to nearly 100% incorporation of tRNA insert (FIG. 11)-thus the ‘one-pot’ designation. The reaction is transformed into E. coli, with the resultant cDNA purified by standard methods. […]

Molecule	Ranking (Table 7, Trp TGA)	stop codon selectivity (NanoLuc TGA, TAA or TAG reporter) (listed as ACE-tRNA^Trp)	Ranking (Table 8, Gly TGA)	stop codon selectivity (NanoLuc TGA, TAA or TAG reporter) (listed as Glychr19.t2)
Trpchr17.trna39: top performing tryptophan ACE-tRNA UGA suppressor, SEQ ID NO: 48	#1	Stop codon specificity is maintained	–	–
Glychr19.trna2: top performing glycine ACE-tRNA UGA suppressor, SEQ ID NO: 53 (nucleic acid, chemistry not fully specified) GCGTTGGTGGTATAGTGGTTAGCATAGCTGCCTTCAAAGCAGTTGACCCGGGTTCGATTCCCGGCCAACGCA	–	–	#1	selectively suppresses the UGA stop codon
